Laboratory results reported in patent US11981658B2, “Substituted aminopyridine compounds as EGFR inhibitors” (YUHAN CORPORATION, priority 2021, dated 2024).
Where two headings read alike, the source gives them in different places.

What was measured:
EGFR wildtype (WT) = EGFR wildtype (WT) (Homo sapiens, UniProt P00533); test: Biochemical EGFR kinase inhibition assay (Lance Ultra TR-FRET), wildtype
How it was run: (§1)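 In this biochemical assay, phosphorylation after a one-hour room-temperature reaction was detected with europium-labelled anti-phosphopeptide antibody at 2 nM final concentration.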

EGFR Del19/T790M/C797S = EGFR Del19/T790M/C797S (Homo sapiens, UniProt P00533, C797S/DEL746-750/T790M); test: Biochemical EGFR kinase inhibition assay (Lance Ultra TR-FRET), triple mutant del19/T790M/C797S
EGFR Del19/T790M/C797S, sequence (P00533 with tags, fused parts or gaps DEL746-750/T790M/C797S): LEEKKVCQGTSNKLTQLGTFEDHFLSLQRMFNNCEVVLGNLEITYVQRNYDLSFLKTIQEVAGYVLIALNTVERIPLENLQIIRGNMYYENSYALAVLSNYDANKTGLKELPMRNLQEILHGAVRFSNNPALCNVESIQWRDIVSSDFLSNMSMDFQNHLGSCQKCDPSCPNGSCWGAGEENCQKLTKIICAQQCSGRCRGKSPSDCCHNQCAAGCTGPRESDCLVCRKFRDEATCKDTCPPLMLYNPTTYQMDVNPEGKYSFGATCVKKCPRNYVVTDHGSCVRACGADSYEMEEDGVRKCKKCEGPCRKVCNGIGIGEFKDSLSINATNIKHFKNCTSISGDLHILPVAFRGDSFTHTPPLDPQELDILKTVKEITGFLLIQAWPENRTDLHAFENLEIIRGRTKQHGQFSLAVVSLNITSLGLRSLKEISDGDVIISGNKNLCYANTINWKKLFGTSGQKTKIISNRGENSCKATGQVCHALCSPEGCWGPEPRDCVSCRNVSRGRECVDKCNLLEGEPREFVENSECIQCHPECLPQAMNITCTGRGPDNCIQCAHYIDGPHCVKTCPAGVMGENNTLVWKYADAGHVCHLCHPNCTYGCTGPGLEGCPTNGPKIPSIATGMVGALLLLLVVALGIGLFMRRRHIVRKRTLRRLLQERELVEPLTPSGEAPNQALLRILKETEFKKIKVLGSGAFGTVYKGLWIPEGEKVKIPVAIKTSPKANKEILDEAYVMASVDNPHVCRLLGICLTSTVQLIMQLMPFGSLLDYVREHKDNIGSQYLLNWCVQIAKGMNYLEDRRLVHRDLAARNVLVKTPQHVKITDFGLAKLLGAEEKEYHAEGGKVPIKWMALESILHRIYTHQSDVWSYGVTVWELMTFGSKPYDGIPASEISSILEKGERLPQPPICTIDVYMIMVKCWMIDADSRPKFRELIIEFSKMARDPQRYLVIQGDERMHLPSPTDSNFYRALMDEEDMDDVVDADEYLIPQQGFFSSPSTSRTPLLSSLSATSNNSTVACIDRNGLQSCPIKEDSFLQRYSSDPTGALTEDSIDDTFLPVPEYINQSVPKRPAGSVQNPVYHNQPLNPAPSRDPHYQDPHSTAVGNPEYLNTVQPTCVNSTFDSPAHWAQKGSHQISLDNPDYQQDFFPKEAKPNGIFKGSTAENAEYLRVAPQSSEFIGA
How it was run: as §1

EGFR Del19/C797S = EGFR Del19/C797S (Homo sapiens, UniProt P00533, C797S/DEL746-750); test: Biochemical EGFR kinase inhibition assay (Lance Ultra TR-FRET), double mutant del19/C797S
EGFR Del19/C797S, sequence (P00533 with tags, fused parts or gaps DEL746-750/C797S): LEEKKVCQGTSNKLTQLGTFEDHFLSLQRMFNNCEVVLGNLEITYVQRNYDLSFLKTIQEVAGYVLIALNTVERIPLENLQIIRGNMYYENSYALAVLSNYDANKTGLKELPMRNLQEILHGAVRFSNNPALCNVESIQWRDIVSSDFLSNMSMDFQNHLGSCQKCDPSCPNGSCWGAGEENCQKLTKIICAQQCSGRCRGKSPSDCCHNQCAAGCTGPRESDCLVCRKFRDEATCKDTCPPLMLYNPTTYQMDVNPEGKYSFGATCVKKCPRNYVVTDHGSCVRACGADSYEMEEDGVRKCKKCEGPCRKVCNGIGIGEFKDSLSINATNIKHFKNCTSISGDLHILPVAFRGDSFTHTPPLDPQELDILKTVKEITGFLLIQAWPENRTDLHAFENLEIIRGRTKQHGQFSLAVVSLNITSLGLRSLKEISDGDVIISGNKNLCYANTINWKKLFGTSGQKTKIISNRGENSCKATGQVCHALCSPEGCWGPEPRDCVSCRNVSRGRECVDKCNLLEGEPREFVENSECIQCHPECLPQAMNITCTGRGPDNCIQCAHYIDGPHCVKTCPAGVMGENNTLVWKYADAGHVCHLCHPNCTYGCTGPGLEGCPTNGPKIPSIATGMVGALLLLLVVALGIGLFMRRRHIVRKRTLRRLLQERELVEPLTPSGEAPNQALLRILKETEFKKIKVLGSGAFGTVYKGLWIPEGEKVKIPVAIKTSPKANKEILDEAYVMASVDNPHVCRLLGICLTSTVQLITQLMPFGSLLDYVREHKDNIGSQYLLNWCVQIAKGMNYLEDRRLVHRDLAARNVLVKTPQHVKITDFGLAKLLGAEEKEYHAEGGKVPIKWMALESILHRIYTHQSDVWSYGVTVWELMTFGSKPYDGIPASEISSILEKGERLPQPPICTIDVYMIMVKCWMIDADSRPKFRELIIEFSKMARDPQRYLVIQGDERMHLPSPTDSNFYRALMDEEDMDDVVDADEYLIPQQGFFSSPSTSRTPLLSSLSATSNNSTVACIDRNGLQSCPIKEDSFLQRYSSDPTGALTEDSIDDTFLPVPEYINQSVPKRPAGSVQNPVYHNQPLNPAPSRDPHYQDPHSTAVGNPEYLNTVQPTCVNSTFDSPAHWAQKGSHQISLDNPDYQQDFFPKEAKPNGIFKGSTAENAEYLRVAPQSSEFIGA
How it was run: as §1

EGFR L858R/T790M/C797S = EGFR L858R/T790M/C797S (Homo sapiens, UniProt P00533, C797S/L858R/T790M); test: Biochemical EGFR kinase inhibition assay (Lance Ultra TR-FRET), triple mutant L858R/T790M/C797S
How it was run: as §1

EGFR L858R/C797S = EGFR L858R/C797S (Homo sapiens, UniProt P00533, C797S/L858R); test: Biochemical EGFR kinase inhibition assay (Lance Ultra TR-FRET), double mutant L858R/C797S
EGFR L858R/C797S, sequence (P00533 25-1210 C797S/L858R): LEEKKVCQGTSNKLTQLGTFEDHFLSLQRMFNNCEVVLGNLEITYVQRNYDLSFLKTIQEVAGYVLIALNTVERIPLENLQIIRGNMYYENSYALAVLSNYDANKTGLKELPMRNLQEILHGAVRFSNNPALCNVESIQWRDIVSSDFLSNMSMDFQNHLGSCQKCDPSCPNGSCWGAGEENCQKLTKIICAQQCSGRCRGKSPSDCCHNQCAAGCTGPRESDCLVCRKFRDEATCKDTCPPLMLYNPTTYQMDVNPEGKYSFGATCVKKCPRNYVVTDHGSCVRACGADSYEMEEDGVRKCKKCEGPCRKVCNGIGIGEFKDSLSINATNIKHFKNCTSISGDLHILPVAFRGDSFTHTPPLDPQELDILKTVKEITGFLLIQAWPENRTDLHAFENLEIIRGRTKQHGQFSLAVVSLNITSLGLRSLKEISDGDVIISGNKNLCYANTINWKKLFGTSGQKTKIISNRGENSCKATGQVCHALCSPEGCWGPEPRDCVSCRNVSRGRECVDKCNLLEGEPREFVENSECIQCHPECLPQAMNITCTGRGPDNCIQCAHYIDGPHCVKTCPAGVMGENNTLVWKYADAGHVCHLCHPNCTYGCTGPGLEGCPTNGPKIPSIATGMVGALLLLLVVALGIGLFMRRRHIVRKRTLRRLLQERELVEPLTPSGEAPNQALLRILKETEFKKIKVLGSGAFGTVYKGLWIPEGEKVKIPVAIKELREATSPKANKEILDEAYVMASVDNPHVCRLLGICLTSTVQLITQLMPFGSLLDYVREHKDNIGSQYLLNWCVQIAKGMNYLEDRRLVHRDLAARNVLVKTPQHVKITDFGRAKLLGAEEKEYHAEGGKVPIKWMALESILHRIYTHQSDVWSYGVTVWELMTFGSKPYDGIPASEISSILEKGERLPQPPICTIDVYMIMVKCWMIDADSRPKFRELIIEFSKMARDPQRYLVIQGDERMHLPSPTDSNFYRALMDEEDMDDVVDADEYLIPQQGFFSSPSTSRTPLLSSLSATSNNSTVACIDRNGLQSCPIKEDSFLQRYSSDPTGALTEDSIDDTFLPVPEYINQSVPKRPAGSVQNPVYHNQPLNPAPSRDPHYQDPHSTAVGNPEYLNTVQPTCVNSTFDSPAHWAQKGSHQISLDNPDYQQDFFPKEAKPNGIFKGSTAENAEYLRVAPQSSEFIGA
How it was run: as §1

[1] = Km ATP, read-out: IC50 WT (nM), Km ATP
[2] = IC50 Del19/T790M/C797S (nM), 100 μM ATP
[3] = Km ATP, read-out: IC50 Del19/T790M/C797S (nM), Km ATP
[4] = IC50 Del19/C797S (nM), 100 μM ATP
[5] = Km ATP, read-out: IC50 Del19/C797S (nM), Km ATP
[6] = IC50 L858R/T790M/C797S (nM), 100 μM ATP
[7] = Km ATP, read-out: IC50 L858R/T790M/C797S (nM), Km ATP
[8] = IC50 L858R/C797S (nM), 100 μM ATP
[9] = Km ATP, read-out: IC50 L858R/C797S (nM), Km ATP

EGFR wildtype (WT), sequence (P00533 25-1210): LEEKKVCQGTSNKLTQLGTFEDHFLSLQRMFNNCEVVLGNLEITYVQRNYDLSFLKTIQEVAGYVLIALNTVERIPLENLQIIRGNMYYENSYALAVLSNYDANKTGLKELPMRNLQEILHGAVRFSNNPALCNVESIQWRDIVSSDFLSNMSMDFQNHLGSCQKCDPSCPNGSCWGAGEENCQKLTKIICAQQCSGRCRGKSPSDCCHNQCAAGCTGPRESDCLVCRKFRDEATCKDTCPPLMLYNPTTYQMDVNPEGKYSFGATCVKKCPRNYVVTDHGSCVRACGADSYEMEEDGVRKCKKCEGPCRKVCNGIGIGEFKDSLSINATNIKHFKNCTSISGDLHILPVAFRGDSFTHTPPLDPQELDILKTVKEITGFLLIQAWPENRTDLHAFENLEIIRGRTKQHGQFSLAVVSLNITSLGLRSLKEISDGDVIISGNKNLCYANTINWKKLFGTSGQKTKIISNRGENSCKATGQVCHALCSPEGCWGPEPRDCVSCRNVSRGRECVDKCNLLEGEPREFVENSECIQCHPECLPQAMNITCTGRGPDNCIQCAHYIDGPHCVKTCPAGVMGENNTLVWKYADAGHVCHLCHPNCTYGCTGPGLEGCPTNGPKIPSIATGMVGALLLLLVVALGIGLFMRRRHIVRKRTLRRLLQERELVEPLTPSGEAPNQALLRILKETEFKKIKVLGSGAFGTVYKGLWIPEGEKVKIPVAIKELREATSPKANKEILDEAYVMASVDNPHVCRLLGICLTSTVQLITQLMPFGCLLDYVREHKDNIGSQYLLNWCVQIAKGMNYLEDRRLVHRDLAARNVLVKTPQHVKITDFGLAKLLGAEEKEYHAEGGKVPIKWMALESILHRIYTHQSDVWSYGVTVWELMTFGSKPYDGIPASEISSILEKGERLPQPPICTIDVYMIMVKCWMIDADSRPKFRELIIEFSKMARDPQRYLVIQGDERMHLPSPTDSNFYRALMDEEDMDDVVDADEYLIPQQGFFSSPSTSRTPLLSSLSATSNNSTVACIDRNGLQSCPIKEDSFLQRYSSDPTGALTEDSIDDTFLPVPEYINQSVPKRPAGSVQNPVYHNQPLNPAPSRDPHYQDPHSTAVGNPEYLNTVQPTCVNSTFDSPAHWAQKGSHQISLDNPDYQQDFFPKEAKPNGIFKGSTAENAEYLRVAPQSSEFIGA

Structure (SMILES)	IC50 (EGFR wildtype (WT); IC50 WT (nM), 100 μM ATP) [nM]	IC50 (EGFR wildtype (WT); [1]) [nM]	IC50 (EGFR Del19/T790M/C797S; [2]) [nM]	IC50 (EGFR Del19/T790M/C797S; [3]) [nM]	IC50 (EGFR Del19/C797S; [4]) [nM]	IC50 (EGFR Del19/C797S; [5]) [nM]	IC50 (EGFR L858R/T790M/C797S; [6]) [nM]	IC50 (EGFR L858R/T790M/C797S; [7]) [nM]	IC50 (EGFR L858R/C797S; [8]) [nM]	IC50 (EGFR L858R/C797S; [9]) [nM]
CN1CCC(C#Cc2cnc(Nc3ccnc(-c4cnn(S(=O)(=O)C5CC5)c4)n3)cc2N2CCC3(CCO3)CC2)C1 (stereo not shown) [Example 373, 2-(1-(Cyclopropylsulfonyl)-1H-pyrazol-4-yl)-N-(5-((1-methylpyrrolidin-3-yl)ethynyl)-4-(1-oxa-7-azaspiro[3.5]nonan-7-yl)pyridin-2-yl)pyrimidin-4-amine]	9540	10.8	0.2	0.2	1.8	1.6	0.4	0.1	41.6	2.5
O=S(=O)(C1CC1)n1cc(-c2nccc(Nc3cc(NC4CCC(CO)CC4)c(C#CC4CCCO4)cn3)n2)cn1 (stereo not shown) [Example 374, ((1s,4s)-4-((2-((2-(1-(Cyclopropylsulfonyl)-1H-pyrazol-4-yl)pyrimidin-4-yl)amino)-5-((tetrahydrofuran-2-yl)ethynyl)pyridin-4-yl)amino)cyclohexyl)methanol]	9810	10.4	0.3	0.3	2.4	1.3	0.6	0.3	75.1	4.1
O=S(=O)(C1CC1)n1cc(-c2nccc(Nc3cc(NCC4CCC(O)CC4)c(C#CC4CCCO4)cn3)n2)cn1 (stereo not shown) [Example 375, (1 r,4r)-4-(((2-((2-(1-(Cyclopropylsulfonyl)-1H-pyrazol-4-yl)pyrimidin-4-yl)amino)-5-((tetrahydrofuran-2-yl)ethynyl)pyridin-4-yl)amino)methyl)cyclohexan-1-ol]	> 10000	122	3.2	2.5	34.8	13.1	8	1.3	1920	82
O=S(=O)(C1CC1)n1cc(-c2nccc(Nc3cc(NC4CCC(O)CC4)c(C#CC4CCCO4)cn3)n2)cn1 (stereo not shown) [Example 376, (1s,4s)-4-((2-((2-(1-(Cyclopropylsulfonyl)-1H-pyrazol-4-yl)pyrimidin-4-yl)amino)-5-((tetrahydrofuran-2-yl)ethynyl)pyridin-4-yl)amino)cyclohexan-1-ol]	> 10000	15.1	0.5	0.3	2.5	1.4	1.1	3.4	102	7.8
CC1(O)CCC(CNc2cc(Nc3ccnc(-c4cnn(S(=O)(=O)C5CC5)c4)n3)ncc2C#CC2CCCO2)CC1 (stereo not shown) [Example 377, (1 r,4r)-4-(((2-((2-(1-(Cyclopropylsulfonyl)-1H-pyrazol-4-yl)pyrimidin-4-yl)amino)-5-((tetrahydrofuran-2-yl)ethynyl)pyridin-4-yl)amino)methyl)-1-methylcyclohexan-1-ol]	> 10000	132	4.1	3	34.6	20.3	10.6	1.2	1550	52.2
CC1(CO)CCN(c2cc(Nc3ccnc(-c4cnn(S(=O)(=O)C5CC5)c4)n3)ncc2C#CC2CCCO2)CC1 (stereo not shown) [Example 378, (1-(2-((2-(1-(Cyclopropylsulfonyl)-1H-pyrazol-4-yl)pyrimidin-4-yl)amino)-5-((tetrahydrofuran-2-yl)ethynyl)pyridin-4-yl)-4-methylpiperidin-4-yl)methanol]	2900	3.9	0.3	0.1	1	0.5	0.4	0.1	34	1.3
O=S(=O)(C1CC1)n1cc(-c2nccc(Nc3cc(N[C@H]4CC[C@@H](CO)CC4)c(C#Cc4cnn(CCF)c4)cn3)n2)cn1 [Example 379, ((1s,4s)-4-((2-((2-(1-(Cyclopropylsulfonyl)-1H-pyrazol-4-yl)pyrimidin-4-yl)amino)-5-((1-(2-fluoroethyl)-1H-pyrazol-4-yl)ethynyl)pyridin-4-yl)amino)cyclohexyl)methanol]	> 10000	9.7	0.7	0.6	3.9	1.9	0.8	0.4	30.1	1.9
C[C@]1(O)CC[C@H](CNc2cc(Nc3ccnc(-c4cnn(S(=O)(=O)C5CC5)c4)n3)ncc2C#Cc2cnn(CCF)c2)CC1 [Example 380, (1 r,4r)-4-(((2-((2-(1-(Cyclopropylsulfonyl)-1H-pyrazol-4-yl)pyrimidin-4-yl)amino)-5-((1-(2-fluoroethyl)-1H-pyrazol-4-yl)ethynyl)pyridin-4-yl)amino)methyl)-1-methylcyclohexan-1-ol]	> 10000	114	1.5	2.4	58.7	32.5	5.4	2.6	1170	32.6
O=S(=O)(C1CC1)n1cc(-c2nccc(Nc3cc(NC[C@H]4CC[C@H](CO)CC4)c(C#Cc4cnn(CCF)c4)cn3)n2)cn1 [Example 381, ((1 r,4r)-4-(((2-((2-(1-(Cyclopropylsulfonyl)-1H-pyrazol-4-yl)pyrimidin-4-yl)amino)-5-((1-(2-fluoroethyl)-1H-pyrazol-4-yl)ethynyl)pyridin-4-yl)amino)methyl)cyclohexyl)methanol]	> 10000	226	3.1	2.9	75.5	33.3	7.9	3.4	1290	37.9
CNCC1(F)CCN(c2cc(Nc3ccnc(-c4cnn(S(=O)(=O)C5CC5)c4)n3)ncc2C#Cc2cnn(C)c2)CC1 [Example 382, 2-(1-(Cyclopropylsulfonyl)-1H-pyrazol-4-yl)-N-(4-(4-fluoro-4-((methylamino)methyl)piperidin-1-yl)-5-((1-methyl-1H-pyrazol-4-yl)ethynyl)pyridin-2-yl)pyrimidin-4-amine]	5000	10.4	0.2	0.2	2.9	2.1	0.4	0.2	32.4	5.5
Cn1cc(C#Cc2cnc(Nc3ccnc(-c4cnn(S(=O)(=O)C5CC5)c4)n3)cc2N2CCC(F)(CNCCF)CC2)cn1 [Example 383, 2-(1-(Cyclopropylsulfonyl)-1H-pyrazol-4-yl)-N-(4-(4-fluoro-4-(((2-fluoroethyl)amino)methyl)piperidin-1-yl)-5-((1-methyl-1H-pyrazol-4-yl)ethynyl)pyridin-2-yl)pyrimidin-4-amine]	> 10000	40.8	1.2	1	8.2	3.7	1.2	0.6	86.8	14.5
CN(C)C[C@@H]1CCCN(c2cc(Nc3ccnc(-c4cnn(S(=O)(=O)C5CC5)c4)n3)ncc2C#Cc2cnn(C)c2)C1 [Example 384, (S)-2-(1-(Cyclopropylsulfonyl)-1H-pyrazol-4-yl)-N-(4-(3-((dimethylamino)methyl)piperidin-1-yl)-5-((1-methyl-1H-pyrazol-4-yl)ethynyl)pyridin-2-yl)pyrimidin-4-amine]	> 10000	–	1.3	–	10.9	–	3.1	–	49.6	–
CN(C)C[C@@H]1CCCN(c2cc(Nc3ccnc(-c4cnn(S(=O)(=O)C5CC5)c4)n3)ncc2C#Cc2cnn(CCF)c2)C1 [Example 385, (S)-2-(1-(Cyclopropylsulfonyl)-1H-pyrazol-4-yl)-N-(4-(3-((dimethylamino)methyl)piperidin-1-yl)-5-((1-(2-fluoroethyl)-1H-pyrazol-4-yl)ethynyl)pyridin-2-yl)pyrimidin-4-amine]	> 10000	–	0.7	–	11.2	–	2.1	–	37.6	–
CN(C)CCC1CCCN(c2cc(Nc3ccnc(-c4cnn(S(=O)(=O)C5CC5)c4)n3)ncc2C#Cc2cnn(CCF)c2)C1 (stereo not shown) [Example 386, 2-(1-(Cyclopropylsulfonyl)-1H-pyrazol-4-yl)-N-(4-(3-(2-(dimethylamino)ethyl)piperidin-1-yl)-5-((1-(2-fluoroethyl)-1H-pyrazol-4-yl)ethynyl)pyridin-2-yl)pyrimidin-4-amine]	1790	3	0.3	0.1	1.4	0.9	0.4	0.1	7.6	0.9
